Data from patent US20240342195A1, “AGENT FOR COMBINATION USE COMPRISING T CELL AND/OR B CELL ACTIVITY REGULATOR” (TOKAI UNIVERSITY EDUCATIONAL SYSTEM, priority 2021, published 2024).

Experiments:
BeWo = assay: proliferating ability of cell line cultured with P4 or COR; type: cell-based, human; conditions: 200 μM or less, cultured 10 days
Procedure: (§1) Each of human choriocarcinoma cell line JEG-3, BeWo, and embryonic kidney cell line HEK293 was cultured for 10 days at 37° C. in 5% CO2 in a 10% Fetal Calf Serum (FCS)-containing DMEM (Gibuco) to which water-soluble progesterone (P4; water soluble) (Sigma) or cortisol (COR) (Sigma) was added in various concentrations. Each of mouse myeloma cell line P3-X63-Ag8-U1 (P3X) and mouse lymphoma cell line A20 was cultured for 3 days at 37° C. in 5% CO2 in 10% FCS-containing RPMI 1640 to which P4 or COR was added in various concentrations. Proliferation of the cells was evaluated by measuring the number of the cells.

HEK293 = assay: as above; type: cell-based, human; conditions: 200 μM or less, cultured 10 days
Procedure: as §1

JEG-3 = assay: as above; type: cell-based, human; conditions: 200 μM or less, cultured 10 days
Procedure: as §1

A20 = assay: as above; type: cell-based, mouse; conditions: 2 μM or less, cultured 3 days
Procedure: as §1

P3-X63-Ag8-U1 (P3X) = assay: as above; type: cell-based, mouse; conditions: 2 μM or less, cultured 3 days
Procedure: as §1

[1] = test system: Human peripheral blood mononuclear cells (PBMCs); assay: number of cells of TSST-1-stimulated PBMCs cultured with P4 or COR; type: cell-based; conditions: PBMCs + TSST-1; 3 days
Procedure: (§2) The PBMCs (final concentration: 1×10^6/mL) were cultured for 3 days at 37° C. in 5% CO2 in 10% FCS-containing RPMI 1640 to which P4 or COR was added in various concentrations with stimulation by 1 μg/mL of toxic shock syndrome toxin-1 (TSST-1). These cells were collected, washed with PBS, and dispensed into a Fisher tube in an amount of 1×10^6 cells/tube. For analysis of a human cell surface marker, a fluorescent-labeled anti-human monoclonal antibody (mAbs) was used. The cells were stained with the mAbs, a reaction was performed for 15 minutes at 4° C., and the resultant was washed with PBS containing 1% (w/v) BSA. Then, the resultant was analyzed by FACS Fortessa, or FACS Verse (BD Bioscience, Franklin Lakes, NJ). In the analysis, a leukocyte gated or lymphocyte gated cells were further gated by expression of human CD45, and then the analysis was performed. A culture supernatant was collected, and 25 μL thereof was dispensed to quantitatively determine cytokine with Legend Plex™ kit from BioLegend.

[2] = test system: CD4 and CD8 T cells in PBMCs; assay: FCM analysis of activation/exhaustion markers (CD25, PD-1) on T cells of TSST-1-stimulated PBMCs; type: cell-based, human; conditions: 20 to 200 μM
Procedure: as §2

B cell in PBMCs [3] = assay: FCM analysis of PD-1 on B cells of TSST-1-stimulated PBMCs; type: cell-based, human; conditions: TSST-1 and P4/COR stimulation; data not shown
Procedure: as §2

[4] = test system: CD4 and CD8 T cells in PBMCs; assay: restimulation experiment (transient vs continuous P4/COR), PD-1/PD-L1 on T cells; type: cell-based, human; conditions: TSST-1 3 days
Procedure: (§3) In a restimulation experiment, PBMCs were cultured for 6 hours at 37° C. in 5% CO2 in 10% FCS-containing RPMI 1640 to which 200 μM P4 or COR was added. These cells were washed, adjusted to a final concentration of 1×10^6/mL, and cultured again in the presence or absence of 200 μM P4 or COR with stimulation by 1 μM TSST-1. After 72 hours, the resultant cells were collected to be analyzed by FCM.

B cell in PBMCs [5] = assay: restimulation experiment (transient vs continuous P4/COR), PD-L1 on B cells; type: cell-based, human; conditions: addition of 200 μM; TSST-1 3 days
Procedure: as §3

[6] = test system: Hu-PBMC-NOG (GVHD onset model); assay: GVHD onset model: human PBMCs transplanted to NOG mouse, P4 or COR administered subcutaneously; type: in vivo; conditions: 2 mg/head subcutaneously twice a week, 4 weeks
Procedure: In the analysis using the GVHD model, PBMCs prepared in the same manner as described above were washed with PBS, and 2.5×10^6 PBMCs were intravenously transplanted to each 8- to 9-week-old NOG mouse. […] At the same time as the administration, the weight was measured. After 4 weeks, the mouse was anesthetized to collect heart blood, and euthanized. From various lymphoid organs excised, human cells were prepared, hemolyzed, and then subjected to FCM. Besides, the lung and the liver were excised, and immunohistochemically stained as follows. A tissue of the mouse was immobilized with 20% formalin (Wako Pure Chemical Industries, Ltd.), and embedded in paraffin. The obtained paraffin block was sliced, and the resultant was subjected to deparaffinization, mounted on a slide glass, and stained with hematoxylin and eosin (HE). In immunohistochemical staining with an anti-human CD45 antibody, the slide was subjected to a heat treatment at 97° C. for 20 minutes, and subjected to an endogenous peroxidase treatment through a reaction with 0.3% H2O2/MetOH at room temperature for 10 minutes. Thereafter, the resultant was blocked with 1% goat serum, and anti-human CD45 (Dako) was added thereto, followed by a reaction overnight at 4° C. The resultant slide was washed 3 times with 0.01 M PBS for 5 minutes, and colored with a DAB solution. The resultant was washed with running water for 3 minutes, and stained with hematoxylin, followed by dehydration and penetration/encapsulation.

PBMC-NOG-hIL-4-Tg mouse = assay: transplantation of P4/COR-cultured PBMCs to NOG-hIL-4-Tg mouse immunized with CH401MAP; type: in vivo; conditions: PBMCs cultured with 200 μM for 6 hours before transplantation
[7] = test system: B cell (CD19 gated) in human PBMCs; assay: atezolizumab addition experiment, PD-L1/PD-1 expression on B cell by FCM; type: cell-based; conditions: 3 days
Procedure: (§4) As for an experiment of atezolizumab addition, 0 to 200 μM P4 or COR, 1 μM TSST-1, and 100 μg/mL atezolizumab were added to PBMCs, and the resultant was cultured for 72 hours at 37° C. in 5% CO2, followed by analysis by FCM.

[8] = test system: T cell (CD3 gated) in human PBMCs; assay: atezolizumab addition experiment, PD-L1/PD-1 expression on T cell by FCM; type: cell-based; conditions: 3 days
Procedure: as §4

humanized mouse = assay: PD-L1/PD-1 expression in humanized mouse in vivo after atezolizumab administration; conditions: data not shown
[9] = test system: human breast cancer cell line MDA-MB-231; assay: cancer-bearing CMV-NOG-hIL-4-Tg mouse with MDA-MB-231 and human PBMCs transplanted; type: in vivo
Procedure: 5×10^6 MDA-MB231 was subcutaneously administered to a ventral portion of a 6- to 7-week-old NOG-hIL-4-Tg mouse (a hIL-4 concentration in blood of 100 pg/mL or more). Diameters of the tumor along the ventral and in a direction at a right angle to the ventral were measured with a caliper every 2 days from one week after the administration, and the product thereof was defined as the size of the tumor. Two weeks after the tumor transplantation, 5×10^6 PBMCs were intravenously transplanted to the cancer-bearing mice and non-cancer-bearing mice as a control group. The measurement of the tumor diameters was similarly continued after the PBMC transplantation. The non-cancer bearing mice were divided into two groups, and PBS or atezolizumab ([…], 3 times (every 10 days)) was administered to each group. The cancer-bearing mice were divided into three groups, and PBS, atezolizumab ([…], 3 times (every 10 days)), or liposome (amount equivalent to 225 μg of atezolizumab and 40 μg of P4/dose, 6 times (every 5 days)) was administered to each group.
After 4 weeks, the mice were anesthetized to collect heparinized blood, and were euthanized. From various lymph tissues collected, cells were collected, and erythrocytes were removed therefrom with a hemolysis buffer to prepare a cell suspension. The number of cells therein was counted, and a human leukocyte fraction was subjected to flowcytometry (FCM) analysis. A tumor tissue was used for immunohistochemical staining.
For human immunocytochemistry, the same antibodies as those used in Example 1 were used. Cells were reacted with an appropriate amount of each of various, fluorescent-labeled antibodies for 15 minutes at 4° C., and washed with PBS containing 1% BSA. The resultant cells were analyzed with FACS Fortessa or Verse (manufactured by BD Bioscience). Living cells were gated, and human CD45-positive cells were further gated to obtain a human leukocyte fraction. These cells were further divided with a cell surface marker to obtain lymphocyte subsets. For data analysis, FlowJo (BD) was used.
A tissue of the mouse was immobilized with 20% formalin (manufactured by Wako Pure Chemical Industries, Ltd.), and embedded in paraffin. The resultant paraffin block was sliced, and the resultant was subjected to deparaffinization, mounted on a slide glass, and stained with hematoxylin and eosin (HE). In immunohistochemical staining with an anti-human CD8 antibody, the slide was subjected to a heat treatment at 120° C. for 20 minutes, and subjected to an endogenous peroxidase treatment through a reaction with 0.3% H2O2/MetOH at room temperature for 10 minutes. Thereafter, the resultant was blocked with 1% goat serum, and anti-human CD8 (manufactured by Dako) was added thereto, followed by a reaction at 25° C. for 60 minutes. The resultant slide was washed 3 times with 0.01 M PBS for 5 minutes, followed by a reaction at 25° C. for 60 minutes with simple stain MAX-PO (manufactured by Nichirei Biosciences Inc.). The resultant slide was washed 3 times with 0.01 M PBS for 5 minutes, and colored with a DAB solution. The resultant was washed with running water for 3 minutes, and stained with hematoxylin, followed by dehydration and penetration/encapsulation.

[10] = atezolizumab 450 pg/head/dose 3 times, liposome equivalent to 225 μg atezolizumab and 40 μg P4/dose 6 times, 4 weeks

C[C@]12CCC(=O)C=C1CC[C@@H]1[C@@H]2[C@@H](O)C[C@@]2(C)[C@H]1CC[C@]2(O)C(=O)CO [COR, cortisol]
cell proliferating ability (BeWo): minimally changed | cell proliferating ability (HEK293): minimally changed | cell proliferating ability (JEG-3): minimally changed | proliferation (A20): almost completely suppressed | proliferation (P3-X63-Ag8-U1 (P3X)): almost completely suppressed | number of cells vs control group [1]: substantially no difference | PD-1 expression on T cells ([2]; day 3): not suppressed depending on the COR concentration | activation marker-negative (non-activated) T cells ([2]; day 3): not largely increased | number of activated cells ([2]; day 3, data not shown): reduced | ratio of later-phase activated (CD25-positive PD-1-positive) T cells ([2]; CD4 and CD8 T cells, day 3): did not depend on the COR concentration | PD-1 expression on B cell (B cell in PBMCs [3]): not increased | ratio of later-phase activated (PD-1/PD-L1-positive) cells ([4]; CD4 and CD8 T cells, continuously added, 200 μM): not suppressed as much as that obtained by P4 addition | CD8 T cell activation vs control group ([4]; transiently added (200 μM 6 hours, washed)): significantly suppressed | PD-L1 expression in B cell (B cell in PBMCs [5]): tended to reduce PD-L1 expression | GVHD symptoms [6]: reduced GVHD symptoms | lymphocyte engraftment [6]: lymphocyte engraftment failure was also caused | lymphocytes [6]: reduced lymphocytes | engraftment ability of transplanted PBMCs (PBMC-NOG-hIL-4-Tg mouse; analysis after 4 weeks): low engraftment ability | specific antibody production (CH401MAP) (PBMC-NOG-hIL-4-Tg mouse; plasma after 4 weeks): suppressed | PD-L1 expression in a B cell ([7]; 0 to 200 μM, TSST-1): showed PD-L1 expression

atezolizumab
PD-1 expression in a T cell [8]: increased | PD-L1 expression in a T cell [8]: reduced | PD-1 expression in a B cell [7]: increased | PD-1 expression (humanized mouse): tended to be increased | PD-L1 expression (humanized mouse): tended to be reduced | engraftment of a B cell (CD19-positive) in spleen cells [9, 10]: reduced | ratio of a T cell (CD3-positive) in spleen cells [9, 10]: increased | ratio of the CD8-positive killer T cell in spleen cells [9, 10]: increased | increase of the tumor (tumor diameter) ([9]; compared with PBS administration group): suppressed | human (killer) T cell infiltration into the tumor mass ([9]; histochemical staining (anti-human CD8), liposome compared with atezolizumab alone): obviously observed
